One series addresses T1, SNAP25 (Homo sapiens, UniProt P60880).
T1 construct: we detected the palmitoylation levels of eight known palmitoylated proteins after treatment with 1; endogenous in cells; host or cells: HeLa
The experiment in a line: Acyl resin-assisted capture detection of SNAP25 palmitoylation in HeLa cells. The format is cell-based. To be noted: 1.25 μmol/10^7 cells, relative to vehicle. The method, then:
(§1) HeLa cells were grown to confluency in 10 cm plates. Stock solutions of compounds were prepared in DMSO as before and diluted to the final indicated concentration in 5.5 mL of OptiMEM media before adding to cells. Cells were incubated at 37° C. for 20 min and then media removed and 3 mL of HBSS added to each plate. Cells were detached using a cell scraper, pelleted by centrifugation at 1,000 rcf for 5 min and the pellet processed using a CAPTUREome S-Palmitoylated Protein Kit (Badrilla, UK) according to the manufacturer's protocol. Samples were resolved by electrophoresis using 4-20% SDS-polyacrylamide gels (Bio-Rad) under denaturing and reducing conditions. Proteins were then electrotransferred to a PVDF membrane (Bio-Rad). […]
(§2) Assays were performed in 3 biological replicates. […] Western blots were analyzed using ImageJ^1. […]

A further series addresses T2, flotillin-1 (Homo sapiens, UniProt O75955).
T2 construct: we detected the palmitoylation levels of eight known palmitoylated proteins after treatment with 1; endogenous in cells; host or cells: HeLa
T2 sequence (O75955 1-427): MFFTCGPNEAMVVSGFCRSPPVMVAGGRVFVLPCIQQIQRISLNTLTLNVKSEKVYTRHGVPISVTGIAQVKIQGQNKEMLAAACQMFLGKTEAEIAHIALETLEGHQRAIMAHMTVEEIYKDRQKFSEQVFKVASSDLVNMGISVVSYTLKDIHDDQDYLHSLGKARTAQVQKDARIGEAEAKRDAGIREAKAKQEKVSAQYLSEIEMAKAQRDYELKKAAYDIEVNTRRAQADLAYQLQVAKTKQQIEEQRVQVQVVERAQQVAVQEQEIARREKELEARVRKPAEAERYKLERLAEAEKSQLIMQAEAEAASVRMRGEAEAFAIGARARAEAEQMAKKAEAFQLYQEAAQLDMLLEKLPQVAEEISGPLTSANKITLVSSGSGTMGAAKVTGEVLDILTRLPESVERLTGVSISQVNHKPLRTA
The experiment in a line: Acyl resin-assisted capture detection of flotillin-1 palmitoylation in HeLa cells. The format is cell-based. The note with it: 1.25 μmol/10^7 cells, relative to vehicle. How it is done: as §1, §2

For a further series, the system named is EGFP-KRas4b. The experiment in a line: Live-cell imaging of EGFP-KRas4b localization in HeLa cells. The format is cell-based. The note with it: 1.25 μmol/10^7 cells. How it is done: Imaging was performed on an Axio Observer Z1 inverted microscope (Carl Zeiss Microscopy Gmb, Germany) with Yokogawa CSU-X1 spinning disk confocal unit using a 63×, 1.4 NA oil immersion or 20×, 0.8 NA objective to an ORCA-Flash4.0 V2 Digital CMOS camera (Hamamatsu, Japan). For live cell imaging, an incubation chamber with temperature and CO2 controllers (World Precision Instruments) was utilized. Fluorophores were excited with s diode laser (488 nm; 30 mW). Images were acquired using Zen Blue software (Carl Zeiss) and processed using Image J.^1 HeLa cells were plated at 40,000 cells/well in an 8-well Lab-Tek chamber slide (ThermoFisher) and allowed to adhere overnight. Cells were transfected with mEGFP-HRas or mEGFP-KRas4b using Lipofectamine 2000 (ThermoFisher) according to the manufacturer's protocol. 50 mM stocks of compounds 1 and 2 were prepared by dissolving the solid compound in DMSO containing 100 mM tris(2-S 3 carboxyethyl)phosphine hydrochloride (TCEP) as a preservative. From these stocks, a solution of 200 μM [1 or 2] (with 400 μM TCEP), or 400 μM TCEP was prepared in OptiMEM media. Before imaging, cells were exchanged into OptiMEM media. The diluted solutions were added to the indicated final concentration within individual wells of the chamber slide and cells imaged while maintaining 37° C., 5% CO2 in the incubation chamber. […]

The subject of a further series is INCL lymphoblasts. Format: cell-based, human. How it is done:
INCL lymphoblasts were plated at 100,000 cells/well in 80 μL of OptiMEM in a 96 well plate. Stock organic solutions were prepared as before and then diluted to 5× stock solutions in OptiMEM. 20 μL of the OptiMEM stocks was then added to the appropriate wells to achieve the indicated final concentration of the compound in 100 μL of cell suspension. After a 24 h incubation, 10 μL of WST-1 reagent (Sigma-Aldrich) was added to each well and cells incubated for 1 h at 37° C., 5% CO2. Absorbance measurements were taken using a Satire II plate reader (Tecan) at 440 nm using 690 nm as a reference. The background absorbance of the WST-1 reagent in media was subtracted and cell viability was reported as a percentage of the viability of the non-treated control cells. All conditions were tested in 4 replicate wells and values reported as means±SD.

T1 sequence (P60880 whole entry): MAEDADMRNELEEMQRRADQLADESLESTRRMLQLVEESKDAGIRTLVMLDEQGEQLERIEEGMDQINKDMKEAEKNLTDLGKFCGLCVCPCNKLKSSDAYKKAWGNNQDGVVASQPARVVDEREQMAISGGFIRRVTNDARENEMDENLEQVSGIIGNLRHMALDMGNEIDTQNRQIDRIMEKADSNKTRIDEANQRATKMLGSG

With `CCCCCCCCNC(=O)[C@@H](N)CS` [compound 1, H2N-L-Cys-Oct], the “reduction of palmitoylation level of SNAP25” value at SNAP25 is on record as over 80%. Moreover, the “reduction of palmitoylation level of flotillin-1” value at flotillin-1 was 19-40%. The “EGFP-KRas4b protein localization (fluorescence)” value in the series with EGFP-KRas4b is “no change in protein localization”. Moreover, the “doses that did not decrease cell viability compared to the nontreated control” value with INCL lymphoblasts was “up to 0.08 μmol/10^7 cells”.

The record behind these values is patent US20210023065A1, “AMPHIPHILIC THIOL COMPOUNDS AND USES THEREOF” (THE REGENTS OF THE UNIVERSITY OF CALIFORNIA, priority 2018, published 2021).
